Test results taken from publication PMC12313074, “Targeting translation initiation yields fast-killing therapeutics against the zoonotic parasite Cryptosporidium parvum” (PLOS Pathogens, 2025).

What was measured:
[1] = target: T1, MDR1 (multi-drug resistance-1) (Homo sapiens, UniProt P08183); assay: cell tolerance (viability) assay, MDR1-overexpressing vs vector HCT-8 cells, reversed by elacridar; assay type: cell-based
T1 construct: gene ABCB1; transient over-expression from pCMV3-MDR1 in HCT-8 cells

MBP-CpeIF4A = MBP-CpeIF4A (Cryptosporidium parvum, UniProt F0X401 1-405); assay: RNA alone, no ATP, no Roc-A; TSA: 90 mM Na2HPO4, 10 mM NaH2PO4, 2 mM DTT, pH 7.8, 5 uM MBP-CpeIF4A, 20 uM SYPRO Orange; melt 40-70 C at 1 C/min; conditions: protein: recombinant; tags: N-terminal MBP (pMAL-c5X); label: 6-FAM on 42-nt strand (text says 5' end, printed at 3'); BHQ-1 on 24-nt strand (text says 3', printed at 5'); 5' overhang 18 nt on strand 1, 24 bp duplex

Molecule	cell tolerance (viability) assay, MDR1-overexpressing vs vector HCT-8 cells, rev [1]	Kd (MBP-CpeIF4A) [nM]
COc1ccc([C@@]23Oc4cc(OC)cc(OC)c4[C@]2(O)[C@H](O)[C@H](C(=O)N(C)C)[C@H]3c2ccccc2)cc1 [Roc-A, Rocaglamide A]	reversed this tolerance in a dose-dependent manner (Fig 1D, bars from 3a to 6b), verifying that Roc-A is an MDR1 substrate	
5'-overhanging duplex RNA (42/24 nt) (dsRNA) RNA 1: CAUUAUCGGAUAGUGGAACCUAGCUUCGACUAUCGGAUAAUC RNA 2: GAUUAUCCGAUAGUCGAAGCUAGG		1130
